Assay results as given in ChEMBL document CHEMBL5104138, “Discovery of pyridyl urea sulfonamide inhibitors of NaV1.7” (Bioorg Med Chem Lett, 2022).

How the values were obtained:
Cytochrome P450 3A4 [1] = molecular target: T1, Cytochrome P450 3A4 (Homo sapiens, UniProt P08684); test: Time dependent inhibition of CYP3A4 in human liver microsomes using midazolam as substrate incubated for 30 mins; format: ADME, Microsome
Cytochrome P450 3A4 [2] = molecular target: T1, Cytochrome P450 3A4; test: Time dependent inhibition of CYP3A4 in human liver microsomes using midazolam as substrate preincubated for 30 mins followed by substrate addition; format: ADME, Microsome
[3] = rat, in vivo, iv, 0.5 mg/kg
Description: Unbound clearance in rat at 0.5 mg/kg, iv

[4] = Clearance in rat at 0.5 mg/kg, iv; conditions: in vivo
[5] = Intrinsic clearance in rat liver microsomes assessed as loss of parent compound incubated for 30 mins; format: ADME, Microsome; conditions: read-out: CLH
[6] = Lipophilicity, logD of compound at pH 7.4; format: physicochemical; conditions: buffer
[7] = molecular target: Sodium channel protein type 9 subunit alpha (Homo sapiens, UniProt Q15858); test: Inhibition of human Nav1.7 by PatchXpress assay
Mus musculus [8] = test: Antinociceptive activity in UV burn-induced thermal hyperalgesia mouse model assessed as reduction in latency time at 30 mg/kg, po relative to control; format: functional; parameters: scale not given: the % may be the effect or the level left
Cytochrome P450 2D6 [9] = molecular target: T2, Cytochrome P450 2D6 (Homo sapiens, UniProt P10635); test: Time dependent inhibition of CYP2D6 (unknown origin) preincubated for 30 mins followed by substrate addition; format: ADME
T2 sequence (P10635 whole entry): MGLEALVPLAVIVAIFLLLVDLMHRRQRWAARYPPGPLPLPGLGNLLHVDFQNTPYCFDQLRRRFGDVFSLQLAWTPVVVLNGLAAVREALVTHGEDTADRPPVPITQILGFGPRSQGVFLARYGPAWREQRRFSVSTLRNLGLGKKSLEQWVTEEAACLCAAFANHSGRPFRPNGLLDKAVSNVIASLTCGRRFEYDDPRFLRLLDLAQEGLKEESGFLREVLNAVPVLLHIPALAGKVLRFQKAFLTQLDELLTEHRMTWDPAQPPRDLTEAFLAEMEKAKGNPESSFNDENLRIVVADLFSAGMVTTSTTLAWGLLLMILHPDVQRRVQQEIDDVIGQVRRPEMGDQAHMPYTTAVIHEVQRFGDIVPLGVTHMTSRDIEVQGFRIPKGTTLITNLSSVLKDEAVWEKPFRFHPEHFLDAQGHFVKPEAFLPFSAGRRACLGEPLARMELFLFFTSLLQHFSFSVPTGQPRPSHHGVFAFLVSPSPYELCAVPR

Cytochrome P450 2D6 [10] = molecular target: T2, Cytochrome P450 2D6; test: Time dependent inhibition of CYP2D6 (unknown origin) incubated for 30 mins; format: ADME
Mus musculus [11] = test: Antinociceptive activity in capsaicin-induced licking mouse model assessed as reduction in time spent on licking at 3 mg/kg, po relative to control; format: functional; parameters: scale not given: the % may be the effect or the level left
Mus musculus [12] = test: Antinociceptive activity in mouse model of Histamine-induced itching assessed as reduction in scratching bouts at 30 mg/kg, po relative to control; format: functional; parameters: scale not given: the % may be the effect or the level left

T1 sequence (P08684 whole entry): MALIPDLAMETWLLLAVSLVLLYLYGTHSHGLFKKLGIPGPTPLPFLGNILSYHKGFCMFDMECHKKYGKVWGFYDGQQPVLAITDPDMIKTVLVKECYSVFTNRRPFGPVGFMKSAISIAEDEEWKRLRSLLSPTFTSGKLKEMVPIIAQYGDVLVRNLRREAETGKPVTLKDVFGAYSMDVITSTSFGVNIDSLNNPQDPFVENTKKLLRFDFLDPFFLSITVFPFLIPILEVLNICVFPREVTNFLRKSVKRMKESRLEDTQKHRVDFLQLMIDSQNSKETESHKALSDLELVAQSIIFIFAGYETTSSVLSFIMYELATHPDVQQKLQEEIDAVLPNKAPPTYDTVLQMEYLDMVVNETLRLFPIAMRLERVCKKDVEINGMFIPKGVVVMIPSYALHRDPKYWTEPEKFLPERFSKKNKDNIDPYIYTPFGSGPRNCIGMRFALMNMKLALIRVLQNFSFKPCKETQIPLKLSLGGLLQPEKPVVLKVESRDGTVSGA

| SMILES | IC50 (Cytochrome P450 3A4 [1]) | IC50 (Cytochrome P450 3A4 [2]) | CL free [3] | clearance [4] | logD [6] | IC50 [7] | further results |
| --- | --- | --- | --- | --- | --- | --- | --- |
| CNC(=O)N(c1ccc(S(=O)(=O)Nc2ccon2)cn1)c1cc(F)c(-c2ccc(F)c(OC(F)(F)F)c2)cc1OC | > 50 µM | > 50 µM | 7070 mL/min/kg | 48.3 mL/min/kg |  |  |  |
| COc1cc(-c2ccc(Cl)c(C)c2)ccc1-n1c(=O)ccc2cc(S(=O)(=O)Nc3ccon3)ccc21 | 32 µM | > 50 µM | 2200 mL/min/kg | 13 mL/min/kg | 2.5 | 5 µM | microsomal CLint [5]: 28 µL/min/mg; IC50 ([7]; record 2): 0.01 µM |
| CNC(=O)N(c1ccc(S(=O)(=O)Nc2ncccn2)cn1)c1cc(F)c(-c2ccc(F)c(C(F)(F)F)c2)cc1OC | > 50 µM | > 50 µM | 817 mL/min/kg | 2.5 mL/min/kg | 1.2 |  |  |
| COc1ccc2cc([C@H](C)C(=O)O)ccc2c1 [NAPROXEN] |  |  |  |  |  |  | Activity (Mus musculus [8]): 87% |
| CNC(=O)N(c1ccc(S(=O)(=O)Nc2ccon2)cn1)c1cc(Cl)c(-c2ccc(F)c(OCC(F)(F)F)c2)cc1OC | > 50 µM | > 50 µM |  | 91.7 mL/min/kg | 0.9 | 0.023 µM |  |
| CNC(=O)N(c1ccc(S(=O)(=O)Nc2cccnn2)cn1)c1cc(F)c(-c2ccc(F)c(OC(F)(F)F)c2)cc1OC | > 50 µM | > 50 µM | 1150 mL/min/kg | 11.7 mL/min/kg | 1.8 |  | IC50 (Cytochrome P450 2D6 [9]): 19 µM; IC50 (Cytochrome P450 2D6 [10]): 30 µM |
| CNC(=O)N(c1ccc(S(=O)(=O)Nc2ccon2)cn1)c1cc(Cl)c(-c2ccc(F)c(C(F)(F)F)c2)cc1OC | 12 µM | > 50 µM |  |  |  |  |  |
| COc1cc(-c2ccc(Cl)c(C)c2)ccc1N(C(=O)N(C)C)c1ccc(S(=O)(=O)Nc2ccon2)cn1 |  |  |  |  |  | > 5 µM |  |
| CN1CC[C@]23c4c5ccc(O)c4O[C@H]2[C@@H](O)C=C[C@H]3[C@H]1C5 [MORPHINE] |  |  |  |  |  |  | Activity (Mus musculus [11]): 98% |
| CNC(=O)N(c1ccc(S(=O)(=O)Nc2ccon2)cn1)c1cc(Cl)c(-c2cc(OC)nc(C(F)(F)F)c2)cc1OC | > 50 µM | > 50 µM |  |  |  |  |  |
| CNC(=O)N(c1ccc(S(=O)(=O)Nc2ncccn2)cn1)c1cc(F)c(-c2cccc(C(F)(F)F)c2)cc1OC | > 50 µM | 9 µM | 267 mL/min/kg | 0.5 mL/min/kg | 1 | 0.13 µM |  |
| CN(C)CCOC(c1ccccc1)c1ccccc1 [DIPHENHYDRAMINE] |  |  |  |  |  |  | Activity (Mus musculus [12]): 73% |
